Assay results from ChEMBL document CHEMBL1138794, “Influence of the linker in bispyridium compounds on the inhibition of human choline kinase” (J Med Chem, 2004).

Columns and labels:
Choline kinase alpha = Choline kinase alpha (Homo sapiens, UniProt P35790); test: Inhibitory activity against human choline kinase enzyme
HT-29 = test: Antiproliferative activity was determined using HT-29 human colon cancer cell line; type: functional, cell-based

Sequence of Choline kinase alpha (P35790 whole entry): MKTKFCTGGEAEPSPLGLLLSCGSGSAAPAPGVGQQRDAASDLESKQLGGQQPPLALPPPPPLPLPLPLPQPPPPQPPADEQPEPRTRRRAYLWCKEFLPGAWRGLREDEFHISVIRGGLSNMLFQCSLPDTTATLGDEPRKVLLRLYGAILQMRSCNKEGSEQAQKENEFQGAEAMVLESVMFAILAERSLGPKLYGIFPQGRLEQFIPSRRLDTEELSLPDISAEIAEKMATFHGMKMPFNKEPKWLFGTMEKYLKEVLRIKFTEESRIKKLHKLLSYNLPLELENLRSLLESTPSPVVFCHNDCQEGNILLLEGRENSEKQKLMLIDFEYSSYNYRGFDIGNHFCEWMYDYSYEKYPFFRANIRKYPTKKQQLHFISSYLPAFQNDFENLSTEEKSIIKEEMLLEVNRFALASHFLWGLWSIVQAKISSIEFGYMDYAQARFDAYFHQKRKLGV

IC50 (Choline kinase alpha) [µM] | IC50 (HT-29) [µM] | Structure (SMILES)
1.8 | 0.49 | CN(c1ccc(Cl)cc1)c1cc[n+](Cc2ccc(-c3ccc(C[n+]4ccc(N(C)c5ccc(Cl)cc5)cc4)cc3)cc2)cc1
8.4 | 4 | CN(c1cc[n+](Cc2cccc(C[n+]3ccc(N(C)c4cc(Cl)cc(Cl)c4)cc3)c2)cc1)c1cc(Cl)cc(Cl)c1
7.2 | 3.3 | CN(c1ccc(Cl)cc1)c1cc[n+](Cc2cccc(C[n+]3ccc(N(C)c4ccc(Cl)cc4)cc3)c2)cc1
2.9 | 3.5 | CN(c1ccc(Cl)cc1)c1cc[n+](Cc2ccc(C[n+]3ccc(N(C)c4ccc(Cl)cc4)cc3)cc2)cc1
> 100 | 7.5 | CN(c1cc[n+](C[C@H]2C[C@@H]2C[n+]2ccc(N(C)c3cc(Cl)cc(Cl)c3)cc2)cc1)c1cc(Cl)cc(Cl)c1
15 | 6.81 | CN(c1ccccc1)c1cc[n+](Cc2ccc(C[n+]3ccc(N(C)c4ccccc4)cc3)cc2)cc1
37.5 | 5.1 | CN(c1ccccc1)c1cc[n+](Cc2cccc(C[n+]3ccc(N(C)c4ccccc4)cc3)c2)cc1
0.4 | 2.2 | CN(c1ccccc1)c1cc[n+](Cc2cccc(-c3cccc(C[n+]4ccc(N(C)c5ccccc5)cc4)c3)c2)cc1
4.3 | 2 | CN(c1ccccc1)c1cc[n+](Cc2ccc(-c3ccc(C[n+]4ccc(N(C)c5ccccc5)cc4)cc3)cc2)cc1
2.6 | 1.8 | CN(c1cc[n+](Cc2cccc(-c3cccc(C[n+]4ccc(N(C)c5cc(Cl)cc(Cl)c5)cc4)c3)c2)cc1)c1cc(Cl)cc(Cl)c1
9.7 | 2.9 | CN(c1cc[n+](Cc2ccc(C[n+]3ccc(N(C)c4cc(Cl)cc(Cl)c4)cc3)cc2)cc1)c1cc(Cl)cc(Cl)c1

The remaining lines, values behind:

Structure (SMILES) | IC50 (Choline kinase alpha) [µM] | IC50 (HT-29) [µM]
c1cc(C[n+]2ccc(N3CCCC3)cc2)cc(C[n+]2ccc(N3CCCC3)cc2)c1 | 84.2 | 50
c1cc(C[n+]2ccc(N3CCCCC3)cc2)cc(-c2cccc(C[n+]3ccc(N4CCCCC4)cc3)c2)c1 |  | 1.6
c1c[n+](C[C@H]2C[C@@H]2C[n+]2ccc(N3CCCCC3)cc2)ccc1N1CCCCC1 | 98 | 99
CN(c1ccccc1)c1cc[n+](C[C@H]2C[C@@H]2C[n+]2ccc(N(C)c3ccccc3)cc2)cc1 | > 100 | > 100
c1cc(C[n+]2ccc(N3CCCCC3)cc2)cc(C[n+]2ccc(N3CCCCC3)cc2)c1 | 52.8 | 43
CN(c1ccc(Cl)cc1)c1cc[n+](C[C@H]2C[C@@H]2C[n+]2ccc(N(C)c3ccc(Cl)cc3)cc2)cc1 | 48.2 | 24.3
c1cc(C[n+]2ccc(N3CCCC3)cc2)ccc1C[n+]1ccc(N2CCCC2)cc1 | 24 | > 100
c1cc(-c2ccc(C[n+]3ccc(N4CCCCC4)cc3)cc2)ccc1C[n+]1ccc(N2CCCCC2)cc1 | 8.8 | 4.2
c1cc(C[n+]2ccc(N3CCCCC3)cc2)ccc1C[n+]1ccc(N2CCCCC2)cc1 | 37.7 | > 100
c1c[n+](C[C@H]2C[C@@H]2C[n+]2ccc(N3CCCC3)cc2)ccc1N1CCCC1 | > 100 | > 100
c1cc(-c2ccc(C[n+]3ccc(N4CCCC4)cc3)cc2)ccc1C[n+]1ccc(N2CCCC2)cc1 | 11.1 | 6.1
